Reference: article PMC8298633, “Cannabis constituents interact at the drug efflux pump BCRP to markedly increase plasma cannabidiolic acid concentrations” (Scientific Reports, 2021)

Assays:
wildtype MDCK cells = test: Bidirectional transwell transport assay, wildtype MDCK cell monolayers; conditions: wildtype MDCK cells, 10 µM cannabinoid; for P (A > B): apical to basolateral; for P (B > A): basolateral to apical
Experimental: (§1) We first aimed to determine whether the cannabinoids found in the full-spectrum cannabis extract were substrates of P-glycoprotein and BCRP by using MDCK cells expressing human P-glycoprotein or BCRP in vitro. Transwell assays were conducted to assess bidirectional transport of the cannabinoids detected in plasma following administration of the full-spectrum cannabis extract (CBD, CBDA, CBDVA, CBGA, Δ^9-THC and Δ^9-THCA), including the respective neutral compounds (CBDV and CBG) across wildtype, BCRP and P-glycoprotein MDCK cell monolayers. […] BCRP and P-glycoprotein preferentially transport substrates in the B > A direction.
(§2) Media in the donor chamber was then replaced with that containing 10 µM of an individual cannabinoid in the presence of either vehicle or inhibitor and returned to 37 °C. Aliquots (25 or 50 µL) were removed from the accepter chamber at 60, 120, 180 and 240 min.
(§3) Cannabinoids were analyzed as described above.

BCRP [1] = target: T1, BCRP (Homo sapiens, UniProt Q9UNQ0); test: Inhibition of BCRP-mediated transport of CBDA by cannabinoids (transwell, BCRP MDCK cells); conditions: BCRP MDCK cells; for P (A > B) of CBDA in the presence of inhibitor / P (B > A) of CBDA in the presence of inhibitor: cannabinoids tested at 10 µM
T1 sequence (Q9UNQ0 1-655): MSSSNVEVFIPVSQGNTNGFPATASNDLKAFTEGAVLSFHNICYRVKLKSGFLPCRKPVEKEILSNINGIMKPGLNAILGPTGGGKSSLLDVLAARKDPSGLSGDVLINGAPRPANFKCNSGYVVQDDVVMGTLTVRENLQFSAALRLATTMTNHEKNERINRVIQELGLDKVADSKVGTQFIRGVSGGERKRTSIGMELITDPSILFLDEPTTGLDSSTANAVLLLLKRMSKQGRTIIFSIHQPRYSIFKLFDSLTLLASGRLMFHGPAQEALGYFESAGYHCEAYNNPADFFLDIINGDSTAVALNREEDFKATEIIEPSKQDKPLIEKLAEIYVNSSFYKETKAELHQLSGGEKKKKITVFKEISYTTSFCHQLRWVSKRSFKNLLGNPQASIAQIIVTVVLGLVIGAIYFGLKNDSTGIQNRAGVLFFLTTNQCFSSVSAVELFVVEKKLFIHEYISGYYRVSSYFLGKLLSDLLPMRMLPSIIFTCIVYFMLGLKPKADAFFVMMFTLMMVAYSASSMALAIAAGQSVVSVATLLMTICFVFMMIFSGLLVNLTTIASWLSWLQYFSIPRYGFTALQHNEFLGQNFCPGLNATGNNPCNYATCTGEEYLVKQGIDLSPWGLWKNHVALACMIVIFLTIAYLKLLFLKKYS
Experimental: Cannabinoids were tested at 10 µM. […] Data are expressed as means ± SEM, with n = 4 per time point. […] Schematic created using BioRender.com.
as §3

P-glycoprotein = P-glycoprotein (Homo sapiens, UniProt P08183); test: Bidirectional transwell substrate assay, MDCK cells expressing P-glycoprotein; conditions: for P (A > B): apical to basolateral; for P (B > A): basolateral to apical; for P-glycoprotein substrate status: human P-glycoprotein MDCK cells vs wildtype
Experimental: as §1, §2, §3

BCRP [2] = target: T1, BCRP; test: Inhibition of BCRP-mediated transport of prazosin (transwell, BCRP MDCK cells); conditions: for P (A > B) of prazosin in the presence of inhibitor / P (B > A) of prazosin in the presence of inhibitor: 10 µM inhibitor, 1 µM prazosin
BCRP [3] = target: T1, BCRP; test: Bidirectional transwell substrate assay, MDCK cells expressing BCRP (with or without elacridar); conditions: for P (A > B) / P (B > A) / r (transport efflux ratio): BCRP MDCK cells; for P (A > B): apical to basolateral; for P (B > A): basolateral to apical; for BCRP substrate status: human BCRP MDCK cells vs wildtype, with elacridar control
Experimental: as §1, §2, §3

[4] = Pharmacokinetic study: plasma cannabinoids after single oral gavage of full-spectrum cannabis extract or individual cannabinoid; conditions: mouse plasma; for tmax / AUC / t1/2 / Cmax / Total plasma exposure in full-spectrum extract relative to individual compound, fold lower: oral; for Total plasma exposure in full-spectrum extract relative to individual compound, fold lower: equivalent doses; for Detection in plasma following oral administration of the full-spectrum extract: single oral dose of extract
Experimental: Drugs were administered by oral gavage in a volume of 5 mL/kg. Wildtype male and female mice (postnatal day 21–28, P21-28) received a single oral gavage of either the full-spectrum cannabis extract or an individual cannabinoid. Cannabinoid doses within the full-spectrum extract or as an individual cannabinoid were as follows in mg/kg: CBDA and Δ^9-THCA, 50; CBD, 25; Δ^9-THC, 15; CBC, 9; CBDVA and CBGA, 7; CBN, 2.5; CBG, 1.5; CBDV and Δ^9-THCV, < 1 (Fig. 1a). At selected time points (15–240 min), mice were anesthetized with isoflurane and whole blood was collected by cardiac puncture. Plasma was isolated by centrifugation (9000 g for 10 min, 4 °C) and stored at − 80 °C until assayed.
Concentrations of cannabinoids in plasma samples were quantified as described previously, [24], [58]. […] The organic layer was isolated by centrifugation (4000 g for 10 min) and evaporated to dryness with N2. Samples were reconstituted in acetonitrile and 0.1% formic acid in water (1:3.3, v/v) for supported-liquid extraction (SLE) with methyl tert-butyl ether (MTBE) using Biotage Isolute SLE+ columns (Uppsala, SWE). […] Quantification of cannabinoids was achieved by comparing samples to standards prepared with known amounts of drug.
Plasma concentrations at each time point were averaged and pharmacokinetic parameters were calculated by noncompartmental analysis. Elimination rate constants were determined by linear regression of the terminal component of the concentration–time curve using GraphPad Prism 8.2 (La Jolla, USA). The log-linear trapezoidal method was used to calculated total drug exposure (area under concentration–time curve) using equations described previously.

[5] = P-glycoprotein MDCK cells, 10 µM cannabinoid
[6] = 10 µM cannabinoid, substrate threshold 1.5
[7] = administered as individual cannabinoid, doses mg/kg: CBD 25, CBDA 50, CBDVA 7, CBGA 7, THC 15, THCA 50
[8] = administered as individual cannabinoid, doses mg/kg: CBD 25, CBDA 50, CBDVA 7, THC 15, THCA 50
[9] = administered in full-spectrum extract, doses mg/kg: CBD 25, CBDA 50, CBDVA 7, CBGA 7, THC 15, THCA 50

Sequence of P-glycoprotein (P08183 whole entry): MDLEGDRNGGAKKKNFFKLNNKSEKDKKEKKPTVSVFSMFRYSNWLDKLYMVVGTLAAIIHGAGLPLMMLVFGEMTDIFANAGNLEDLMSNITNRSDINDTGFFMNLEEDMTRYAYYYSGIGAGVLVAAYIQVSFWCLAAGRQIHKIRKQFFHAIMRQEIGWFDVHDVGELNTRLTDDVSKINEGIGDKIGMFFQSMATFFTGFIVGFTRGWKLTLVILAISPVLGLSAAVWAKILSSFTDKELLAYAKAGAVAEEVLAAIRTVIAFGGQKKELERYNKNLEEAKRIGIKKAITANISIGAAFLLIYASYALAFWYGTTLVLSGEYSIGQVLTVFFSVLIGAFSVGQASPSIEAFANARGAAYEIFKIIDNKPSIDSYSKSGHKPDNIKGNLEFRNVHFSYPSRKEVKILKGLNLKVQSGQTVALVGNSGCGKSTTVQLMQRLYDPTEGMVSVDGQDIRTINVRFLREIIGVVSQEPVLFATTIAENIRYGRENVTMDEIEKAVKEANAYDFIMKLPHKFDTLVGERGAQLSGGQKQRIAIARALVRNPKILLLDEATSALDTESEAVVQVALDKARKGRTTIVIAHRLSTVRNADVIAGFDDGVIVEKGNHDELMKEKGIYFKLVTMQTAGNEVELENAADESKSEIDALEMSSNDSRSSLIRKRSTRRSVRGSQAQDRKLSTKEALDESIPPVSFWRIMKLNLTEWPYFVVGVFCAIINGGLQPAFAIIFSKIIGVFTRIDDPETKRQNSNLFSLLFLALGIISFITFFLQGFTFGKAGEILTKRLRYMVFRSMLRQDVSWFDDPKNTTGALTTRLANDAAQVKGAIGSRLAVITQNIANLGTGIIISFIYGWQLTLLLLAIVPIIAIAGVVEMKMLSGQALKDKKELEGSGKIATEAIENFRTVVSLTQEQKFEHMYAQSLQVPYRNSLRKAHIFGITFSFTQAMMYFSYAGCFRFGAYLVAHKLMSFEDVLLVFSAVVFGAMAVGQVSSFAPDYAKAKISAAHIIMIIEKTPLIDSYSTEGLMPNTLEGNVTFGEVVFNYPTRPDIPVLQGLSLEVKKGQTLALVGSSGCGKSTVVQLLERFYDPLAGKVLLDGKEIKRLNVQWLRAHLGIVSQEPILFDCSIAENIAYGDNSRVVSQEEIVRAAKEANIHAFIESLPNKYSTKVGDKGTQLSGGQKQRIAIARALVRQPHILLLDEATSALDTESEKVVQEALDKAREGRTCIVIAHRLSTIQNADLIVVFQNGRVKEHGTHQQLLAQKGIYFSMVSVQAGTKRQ

Structure (SMILES)	r (transport efflux ratio) (wildtype MDCK cells)	P (A > B) (wildtype MDCK cells)	P (B > A) (wildtype MDCK cells)	P (A > B) of CBDA in the presence of inhibitor (BCRP [1])	P (B > A) of CBDA in the presence of inhibitor (BCRP [1])	P (A > B) (P-glycoprotein; [5])	P (B > A) (P-glycoprotein; [5])	P-glycoprotein substrate status (P-glycoprotein)	P (A > B) of prazosin in the presence of inhibitor (BCRP [2])	P (B > A) of prazosin in the presence of inhibitor (BCRP [2])	P (A > B) (BCRP [3]; 10 µM cannabinoid)	P (B > A) (BCRP [3]; 10 µM cannabinoid)	r (transport efflux ratio) (BCRP [3]; [6])	BCRP substrate status (BCRP [3])	tmax [4, 7] [h]	AUC [4, 8] [µg·min/mL]	t1/2 [4, 8] [h]	AUC [4, 9] [µg·min/mL]	t1/2 [4, 9] [h]	tmax [4, 9] [h]	also measured
C=C(C)[C@@H]1CCC(C)=C[C@H]1c1c(O)cc(CCC)c(C(=O)O)c1O [CBDVA, cannabidivarinic acid]	1.1 ± 0.2	22 ± 3 × 10^−5 cm/s	25 ± 2 × 10^−5 cm/s	8 ± 1 × 10^−5 cm/s	63 ± 4 × 10^−5 cm/s	14 ± 4 × 10^−5 cm/s	22 ± 2 × 10^−5 cm/s	not P-glycoprotein substrates	15 ± 3 × 10^−2 cm/s	201 ± 4 × 10^−2 cm/s	24 ± 9 × 10^−5 cm/s	47 ± 6 × 10^−5 cm/s	2.0 ± 0.4	BCRP substrates	0.25	7459	2.5	3844	2	1	Effect on BCRP-mediated transport of CBDA (BCRP [1]; 10 µM, compared to vehicle): Neither CBD nor CBDVA affected CBDA transport via BCRP; r (transport efflux ratio) (P-glycoprotein; P-glycoprotein MDCK cells, 10 µM cannabinoid, substrate threshold 2.5): 1.6 ± 0.3; Cmax ([4]; administered as individual cannabinoid, doses mg/kg: CBDA 50, CBDVA 7, CBGA 7): 26000 ± 2000 ng/mL; Cmax ([4]; administered in full-spectrum extract, doses mg/kg: CBDA 50, CBDVA 7, CBGA 7): 11000 ± 1000 ng/mL; Total plasma exposure in full-spectrum extract relative to individual compound, fold lower [4]: 2–4 ×; Detection in plasma following oral administration of the full-spectrum extract [4]: detected
CCCCCc1cc(O)c2c(c1)OC(C)(C)[C@@H]1CCC(C)=C[C@@H]21 [Δ^9-THC, Δ^9-tetrahydrocannabinol, reference compound]	0.3 ± 0.3	9 ± 3 × 10^−5 cm/s	3 ± 1 × 10^−5 cm/s	21 ± 3 × 10^−5 cm/s	47 ± 4 × 10^−5 cm/s	9 ± 3 × 10^−5 cm/s	4 ± 1 × 10^−5 cm/s	not P-glycoprotein substrates	18 ± 2 × 10^−2 cm/s	201 ± 8 × 10^−2 cm/s	54 ± 17 × 10^−5 cm/s	74 ± 28 × 10^−5 cm/s	1.4 ± 0.5	weak substrates of BCRP	1.5	116	3.5	62	5.5	≤ 1	Effect on BCRP-mediated transport of prazosin (BCRP [2]; 10 µM, compared to vehicle): not prazosin transport; r (transport efflux ratio) (BCRP [3]; 10 µM cannabinoid in the presence of 10 µM elacridar): 0.7 ± 0.2; Cmax ([4]; administered as individual cannabinoid, doses mg/kg: CBD 25, THC 15, THCA 50): 341 ± 40 ng/mL; tmax ([4]; administered in full-spectrum extract, doses mg/kg: CBD 25, CBDA 50, CBDVA 7, CBGA 7, THC 15, THCA 50, listed as THC): 1 h; Cmax ([4]; administered in full-spectrum extract, doses mg/kg: CBD 25, THC 15, THCA 50): 127 ± 15 ng/mL; Total plasma exposure in full-spectrum extract relative to individual compound, fold lower [4]: 2–4 ×; Detection in plasma following oral administration of the full-spectrum extract [4]: detected
